In patent publication US6967192B2, “Seventeen amino acid peptide (Peptide P) for treating ischemia and reperfusion injury” (University of Kentucky Research Foundation, priority 2001, dated 2005):
“And” between values parts separate entries of the source, which are not always exact repeats. Identical values can stand only once.

Tested on: murine model of ischemia/reperfusion injury (cerebral ischemia)
Assay: Murine ischemia/reperfusion model: brain infarct size/volume by TTC staining
Type: in vivo, mouse
Set-up: Damaged Cross Section Area (sum of sections), individual mice: unit: mm^2
Settings: for infarct size (Damaged %), Average: 4 mg/Kg I.V. 1 hr after occlusion, 1 hr ischemia; for infarct size (Damaged %), Average / infarct volume (Corrected Volume), Average: mean ± SEM
[1] = 4 mg/Kg after 1 hr ischemia, 24 hr reperfusion, n=6
[2] = 4 mg/Kg after 1 hr ischemia, 24 hr reperfusion, mice No. 1-6, listed as Pep-P

Substance: Tyr-D-Ala-Phe-Ala-Asp-Val-Ala-Ser-Thr-Ile-Gly-Asp-Phe-Phe-His-Ser-Ile-NH2 (AFADVASTIGDFFHSI; D-Ala, C-terminal amide; printed: Ala-Phe-Ala-Asp-Val-Ala-Ser-Thr-Ile-Gly-Asp-Phe-Phe-His-Ser-Ile-) [Peptide P, linear 17 amino acid peptide with alanine as D-isomer]
- infarct size (Damaged %), Average (24 hr reperfusion, n=6): 16.87+/−3.3%
- infarct size (Damaged %), Average (24 hr reperfusion, n=6, listed as Pep-P): 16.87 ± 3.3%
- infarct volume (Corrected Volume), Average [1]: 24±4.8 mm^3
- infarct volume (Corrected Volume), Average (4 mg/Kg after 1 hr ischemia, 24 hr reperfusion, n=6, listed as Pep-P): 23.74 ± 4.8% mm^3
- Corrected Volume, individual mice (4 mg/Kg after 1 hr ischemia, 24 hr reperfusion, mice No. 1-6, Damaged Cross Section Area × 2 mm section, listed as Pep-P): 35.32 mm^3 and 5.10 mm^3 and 16.98 mm^3 and 35.86 mm^3 and 25.84 mm^3 and 23.36 mm^3
- Damaged %, individual mice [2]: 25.77% and 3.94% and 12.69% and 24.58% and 18.16% and 16.10%
- Damaged Cross Section Area (sum of sections), individual mice [2]: 17.66 and 2.55 and 8.49 and 17.93 and 12.92 and 11.68
- Damaged Cross Section Area (sum of sections), Average [1]: 11.87 ± 2.4%
- reduction of infarct volume compared to control animals (4 mg/kg, after 24 h of reperfusion): 59%
- Damaged Cross Section Area 1, individual mice (brain section 1, 4 mg/Kg after 1 hr ischemia, 24 hr reperfusion, listed as Pep-P, 4 mg/kg): 3.69 and 0 (2×) and 1.42 and 1.89 and 0.27
- Damaged Cross Section Area 2, individual mice (brain section 2, 4 mg/Kg after 1 hr ischemia, 24 hr reperfusion, listed as Pep-P, 4 mg/kg): 5.66 and 0.32 and 1.38 and 3.27 and 4.59 and 1.8
- Damaged Cross Section Area 3, individual mice (brain section 3, 4 mg/Kg after 1 hr ischemia, 24 hr reperfusion, listed as Pep-P, 4 mg/kg): 6.47 and 1.12 and 2.63 and 7.23 and 2.22 and 5.15
- Damaged Cross Section Area 4, individual mice (brain section 4, 4 mg/Kg after 1 hr ischemia, 24 hr reperfusion, listed as Pep-P, 4 mg/kg): 1.84 and 1.11 and 3.06 and 5.54 and 6.11 and 4.46
